Experimental data as given in US9926324B2, “Heteroaromatic compounds as PI3 kinase modulators and methods of use” (Calitor Sciences, LLC, priority 2012, dated 2018).

Columns and labels:
PI3K (p110δ/p85α) (h) = biological target: T1, PI3K (p110δ/p85α) (h) (Homo sapiens, UniProt O00329); assay: PI3K p110δ/p85α (h) non-radioactive HTRF assay; format: biochemical
T1 construct: purchased Millipore UK Ltd (assay service)
Description: (§1) PI3K (p110δ/p85α) (h) is incubated in assay buffer containing 10 μM phosphatidylinositol-4,5-bisphosphate and MgATP (concentration as required). The reaction is initiated by the addition of the MgATP mix. After incubation for 30 minutes at room temperature, the reaction is stopped by the addition of stop solution containing EDTA and biotinylated phosphatidylinositol-3,4,5-trisphosphate. Finally, detection buffer is added, which contains europium-labelled anti-GST monoclonal antibody, GST-tagged GRP1 PH domain and streptavidin-allophycocyanin. The plate is then read in timeresolved fluorescence mode and the homogenous time-resolved fluorescence (HTRF) signal is determined according to the formula HTRF=10000×(Em665 nm/Em620 nm).
(§2) The kinase assays described herein were performed at Millipore UK Ltd, Dundee Technology Park, Dundee DD2 1SW, UK.

mTOR (h) = biological target: T2, mTOR (h) (Homo sapiens, UniProt P42345); assay: mTOR (h) kinase assay (33P-ATP, filter); format: biochemical
T2 construct: purchased Millipore UK Ltd (assay service)
Description: mTOR (h) is incubated with 50 mM HEPES pH 7.5, 1 mM EDTA, 0.01% Tween 20, 2 mg/mL substrate, 3 mM Manganese Chloride and [γ-^33P-ATP] (specific activity approx. 500 cpm/pmol, concentration as required). The reaction is initiated by the addition of the MnATP mix. After incubation for 40 minutes at room temperature, the reaction is stopped by the addition of 3% phosphoric acid solution. 10 μL of the reaction is then spotted onto a P30 filtermat and washed three times for 5 minutes in 75 mM phosphoric acid and once in methanol prior to drying and scintillation counting.
as §2

[1] = Compound stability in human liver microsomes; format: in vitro ADME; conditions: for half-life at 5 μM / CLint scaled at 5 μM: pH 7.4; for half-life at 5 μM / Human T1/2: human liver microsomes 0.5 mg protein/mL, compound 5 μM, NADPH 1.0 mM, 37° C.; for half-life at 5 μM: read-out: Human T1/2; for CLint scaled at 5 μM: human liver microsomes, in vivo CLint extrapolated
Description: (§3) Human or rat liver microsomes incubations were conducted in duplicate in polypropylene tubes. The typical incubation mixtures consisted of human or rat liver microsomes (0.5 mg protein/mL), compounds of interest (5 μM) and NADPH (1.0 mM) in a total volume of 200 μL potassium phosphate buffer (PBS, 100 mM, pH=7.4). Compounds were dissolved in DMSO and diluted with PBS such that the final concentration of DMSO was 0.05%. The enzymatic reactions were commenced with the addition of […] after a 3-min preincubation and incubated in a water bath open to the air at 37° C. Reactions were terminated at various time points (0, 5, 10, 15, 30, 60 min) by adding equal volume of ice-cold acetonitrile. The samples were stored at −80° C. until LC/MS/MS assays.
(§4) The concentrations of compounds in the incubation mixtures of human or rat liver microsomes were determined by a LC/MS/MS method. The ranges of the linearity in the concentration range were determined for each tested compounds.
(§5) A parallel incubation was performed using denatured microsomes as the negative control, and reactions were terminated at various time points (0, 15, 60 min) after incubation at 37° C.
(§6) Dextromethorphan (70 μM) was selected as the positive control, and reactions were terminated at various time points (0, 5, 10, 15, 30, 60 min) after incubation at 37° C. Both positive and negative control samples were included in each assay to ensure the integrity of the microsomal incubation system.
(§7) The concentrations of compounds in human or rat liver microsome incubations were plotted as a percentage of the relevant zero time point control for each reaction. The in vivo CLint were extrapolated (ref: Naritomi Y, Terashita S, Kimura S, Suzuki A, Kagayama A, Sugiyama Y. Prediction of human hepatic clearance from in vivo animal experiments and in vitro metabolic studies with liver microsomes from animals and humans. Drug Metabolism and Disposition 2001, 29: 1316-1324).

PI3K p110β/p85α (h) = biological target: T3, PI3K p110β/p85α (h) (Homo sapiens, UniProt P42338); assay: PI3K p110β/p85α (h) non-radioactive HTRF assay; format: biochemical
T3 construct: purchased Millipore UK Ltd (assay service)
T3 sequence (P42338 whole entry): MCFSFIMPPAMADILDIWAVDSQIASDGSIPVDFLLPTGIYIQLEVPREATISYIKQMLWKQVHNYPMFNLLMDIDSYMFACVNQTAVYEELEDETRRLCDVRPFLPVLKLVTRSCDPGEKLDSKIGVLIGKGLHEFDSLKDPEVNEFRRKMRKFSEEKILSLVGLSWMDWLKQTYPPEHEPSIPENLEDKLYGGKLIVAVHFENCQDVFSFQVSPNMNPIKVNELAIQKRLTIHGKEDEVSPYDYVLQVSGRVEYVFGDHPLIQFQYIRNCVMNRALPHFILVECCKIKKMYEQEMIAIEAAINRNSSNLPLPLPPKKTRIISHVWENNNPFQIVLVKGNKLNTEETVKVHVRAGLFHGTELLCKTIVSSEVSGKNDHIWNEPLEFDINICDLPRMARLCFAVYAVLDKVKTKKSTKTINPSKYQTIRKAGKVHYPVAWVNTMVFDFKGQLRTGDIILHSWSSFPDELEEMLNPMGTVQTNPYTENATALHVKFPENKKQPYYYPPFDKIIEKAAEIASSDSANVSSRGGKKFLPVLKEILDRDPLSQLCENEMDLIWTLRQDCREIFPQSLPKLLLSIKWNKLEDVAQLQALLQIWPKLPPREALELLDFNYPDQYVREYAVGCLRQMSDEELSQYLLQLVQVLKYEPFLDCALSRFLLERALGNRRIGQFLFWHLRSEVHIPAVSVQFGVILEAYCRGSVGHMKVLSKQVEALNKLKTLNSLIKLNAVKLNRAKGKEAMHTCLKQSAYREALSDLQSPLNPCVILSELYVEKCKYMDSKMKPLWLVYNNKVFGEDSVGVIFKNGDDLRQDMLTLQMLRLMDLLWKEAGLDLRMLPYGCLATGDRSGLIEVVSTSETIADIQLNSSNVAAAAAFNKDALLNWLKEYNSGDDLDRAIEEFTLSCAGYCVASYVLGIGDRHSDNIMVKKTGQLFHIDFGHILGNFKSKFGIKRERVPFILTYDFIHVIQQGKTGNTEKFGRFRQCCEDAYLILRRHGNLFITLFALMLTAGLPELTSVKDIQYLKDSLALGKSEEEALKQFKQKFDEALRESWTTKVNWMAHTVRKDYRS
T3 sequence (P27986 whole entry partner): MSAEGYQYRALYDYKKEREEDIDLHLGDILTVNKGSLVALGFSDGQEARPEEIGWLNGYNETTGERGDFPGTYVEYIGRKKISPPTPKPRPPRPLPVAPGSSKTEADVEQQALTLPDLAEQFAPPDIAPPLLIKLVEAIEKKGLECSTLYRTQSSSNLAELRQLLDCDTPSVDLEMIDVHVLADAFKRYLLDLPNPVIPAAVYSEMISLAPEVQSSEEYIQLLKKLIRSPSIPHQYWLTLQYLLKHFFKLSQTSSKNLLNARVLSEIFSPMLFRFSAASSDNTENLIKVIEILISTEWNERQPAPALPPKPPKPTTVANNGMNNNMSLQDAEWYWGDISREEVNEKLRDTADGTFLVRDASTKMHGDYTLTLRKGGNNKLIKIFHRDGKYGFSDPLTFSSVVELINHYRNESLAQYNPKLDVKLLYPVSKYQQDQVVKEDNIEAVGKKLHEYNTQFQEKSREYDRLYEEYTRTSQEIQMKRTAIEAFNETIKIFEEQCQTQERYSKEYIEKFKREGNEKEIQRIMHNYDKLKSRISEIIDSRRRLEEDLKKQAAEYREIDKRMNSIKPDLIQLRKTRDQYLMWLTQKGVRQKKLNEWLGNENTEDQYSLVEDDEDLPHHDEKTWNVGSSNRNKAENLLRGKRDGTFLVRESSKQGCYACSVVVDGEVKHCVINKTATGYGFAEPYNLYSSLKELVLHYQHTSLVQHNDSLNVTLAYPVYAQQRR
Description: as §1, with “(p110β/p85α)” for “(p110δ/p85α)”
as §2

[2] = Pharmacokinetic profiles in rats after intravenous and oral administration; format: in vivo; conditions: for F: oral dose generally 5 or 10 mg/kg; for AUC(0-t) / half-life / Vd: rat, plasma; for Vd: read-out: Vss
Description: (§8) The compounds disclosed herein are assessed in pharmacokinetic studies in mice, rats, dogs or monkeys. The compounds are administered as a water solution, 2% HPMC+1% TWEEN® 80 in water solution, 5% DMSO+5% solutol in saline, 4% MC suspension or capsule. For the intravenous administration, the animals are generally given at 1 or 2 mg/kg dose. For the oral (p.o.) dosing, mice and rats are generally given 5 or 10 mg/kg dose, and dogs and monkeys are generally given 10 mg/kg dose. The blood samples (0.3 mL) are drawn at 0.25, 0.5, 1.0, 2.0, 3.0, 4.0, 6.0, 8.0, 12 and 24 h time points or 0.083, 0.25, 0.5, 1.0, 2.0, 4.0, 6.0, 8.0 and 24 h time points and centrifuged at 3,000 or 4000 rpm for 2 to 10 min. The plasma solutions are collected, stored at −20° C. or −70° C. until analyzed by LC/MS/MS as described above.

[3] = Compound stability in rat liver microsomes; format: in vitro ADME; conditions: for half-life at 5 μM / CLint scaled at 5 μM: pH 7.4; for half-life at 5 μM / Rat T1/2: rat liver microsomes 0.5 mg protein/mL, compound 5 μM, NADPH 1.0 mM, 37° C.; for half-life at 5 μM: read-out: Rat T1/2; for CLint scaled at 5 μM: rat liver microsomes, in vivo CLint extrapolated
Description: as §3, §4, §5, §6, §7

[4] = Pharmacokinetic profiles in dogs after intravenous and oral administration; format: in vivo; conditions: Dog; for F: iv dose 1 mg/kg, oral dose generally 10 mg/kg; for Clearance (CL) / AUC(0-t) / half-life / Vd: iv dosing 1 mg/kg; for AUC(0-t) / half-life / Vd: plasma; for Vd: read-out: Vss
Description: as §8

T1 sequence (O00329 whole entry): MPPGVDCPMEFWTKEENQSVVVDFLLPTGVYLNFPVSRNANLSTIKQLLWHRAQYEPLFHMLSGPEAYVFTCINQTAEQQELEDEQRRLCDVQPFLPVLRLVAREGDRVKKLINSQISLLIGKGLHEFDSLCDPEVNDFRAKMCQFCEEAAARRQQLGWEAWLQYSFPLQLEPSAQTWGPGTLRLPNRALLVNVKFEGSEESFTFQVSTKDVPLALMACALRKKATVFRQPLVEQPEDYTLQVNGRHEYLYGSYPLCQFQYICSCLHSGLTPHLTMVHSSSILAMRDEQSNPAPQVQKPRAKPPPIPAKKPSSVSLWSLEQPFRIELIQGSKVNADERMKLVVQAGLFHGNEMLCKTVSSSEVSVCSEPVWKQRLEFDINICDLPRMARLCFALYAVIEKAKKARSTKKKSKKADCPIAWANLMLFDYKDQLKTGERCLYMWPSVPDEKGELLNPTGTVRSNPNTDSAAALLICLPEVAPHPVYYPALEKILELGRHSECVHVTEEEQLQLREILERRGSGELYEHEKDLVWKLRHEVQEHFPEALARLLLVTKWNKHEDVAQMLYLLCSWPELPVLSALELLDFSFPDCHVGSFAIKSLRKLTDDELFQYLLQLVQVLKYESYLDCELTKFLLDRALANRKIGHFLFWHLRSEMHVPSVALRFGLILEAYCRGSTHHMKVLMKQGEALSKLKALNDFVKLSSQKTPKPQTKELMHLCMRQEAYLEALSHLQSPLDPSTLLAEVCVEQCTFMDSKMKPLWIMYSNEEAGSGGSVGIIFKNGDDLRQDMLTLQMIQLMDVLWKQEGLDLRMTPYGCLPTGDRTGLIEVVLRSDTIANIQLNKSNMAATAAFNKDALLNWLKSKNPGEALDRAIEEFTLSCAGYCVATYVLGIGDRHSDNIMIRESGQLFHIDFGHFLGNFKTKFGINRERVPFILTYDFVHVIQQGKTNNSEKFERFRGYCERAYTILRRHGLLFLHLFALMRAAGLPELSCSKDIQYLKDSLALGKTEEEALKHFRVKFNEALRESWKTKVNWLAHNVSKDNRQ
T1 sequence (P27986 whole entry partner): as the sequence (P27986 whole entry partner) above

Row | IC50 (PI3K (p110δ/p85α) (h)) | IC50 (mTOR (h)) | half-life at 5 μM [1] | CLint scaled at 5 μM [1] | IC50 (PI3K p110β/p85α (h)) | F ([2]; iv dose 1 mg/kg) | Cl/F ([2]; iv dosing 1 mg/kg) | AUC(0-t) ([2]; iv dosing 1 mg/kg) | half-life ([2]; iv dosing 1 mg/kg) | Vd ([2]; iv dosing 1 mg/kg) | half-life at 5 μM [3] | CLint scaled at 5 μM [3] | F [4] | Clearance (CL) [4] | AUC(0-t) [4] | half-life [4] | Vd [4] | Human T1/2 [1] | Rat T1/2 [3] | F ([2]; iv dose 2 mg/kg) | SMILES | also measured
1 | 3 nM | 31 nM | 5.22 h | 5.55 mL/min/kg | 66 nM | 99.77% | 1.67 mL/min/kg | 19400 ng·h/mL | 2.65 h | 0.35 L/kg | 0.894 h | 46.3 mL/min/kg | – | – | – | – | – | – | – | – | COc1ncc(-c2ccc3ncc(C#CC(C)O)n3c2)cc1NS(=O)(=O)c1ccc(F)cc1F (centres unmarked) [Ex. 16, 2,4-difluoro N (5 (3 (3 hydroxybut-1-yn-1-yl)imidazo[1,2-a]pyridin-6-yl)-2-methoxypyridin-3-yl)benzenesulfonamide] | –
2 | 2 nM | 9 nM | – | – | 38 nM | 104.2% | 2.33 mL/min/kg | 7490 ng·h/mL | 4.1 h | 0.37 L/kg | – | – | 44.2% | 6.17 mL/min/kg | 2750 ng·h/mL | 0.73 h | 0.31 L/kg | ∞ | ∞ | – | COc1ncc(-c2ccc3ncc(C#CCO)n3n2)cc1NS(=O)(=O)c1ccc(F)cc1F [Ex. 9, 2,4-difluoro-N-(5-(3-(3-hydroxyprop-1-yn-1-yl)imidazo[1,2-b]pyridazin-6-yl)-2-methoxypyridin-3-yl)benzenesulfonamide] | –
3 | 1 nM | 34 nM | 8.39 h | 3.45 mL/min/kg | 27 nM | – | – | – | – | – | 2.01 h | 20.6 mL/min/kg | 108.5% | 7.67 mL/min/kg | 2170 ng·h/mL | 0.74 h | 0.37 L/kg | – | – | 97.0% | COc1ncc(-c2ccc3ncc(C#CCO)n3c2)cc1NS(=O)(=O)c1ccc(F)cc1F [Ex. 15, 2,4-difluoro-N-(5-(3-(3-hydroxyprop-1-yn-1-yl)imidazo[1,2-a]pyridin-6-yl)-2-methoxypyridin-3-yl)benzenesulfonamide] | Cl/F ([2]; iv dosing 2 mg/kg): 1.3 mL/min/kg; AUC(0-t) ([2]; iv dosing 2 mg/kg): 25600 ng·h/mL; half-life ([2]; iv dosing 2 mg/kg): 3.14 h; Vd ([2]; iv dosing 2 mg/kg): 0.22 L/kg
4 | 3 nM | 3 nM | – | – | 26 nM | – | – | – | – | – | – | – | 108.5% | 9 mL/min/kg | 1840 ng·h/mL | 0.57 h | 0.37 L/kg | ∞ | ∞ | 108% | COc1ncc(-c2ccc3ncc(C#N)n3n2)cc1NS(=O)(=O)c1ccc(F)cc1F [Ex. 24, N-(5-(3-cyanoimidazo[1,2-b]pyridazin-6-yl)-2-methoxypyridin-3-yl)-2,4-difluorobenzenesulfonamide] | Cl/F ([2]; iv dosing 2 mg/kg): 4 mL/min/kg; AUC(0-t) ([2]; iv dosing 2 mg/kg): 8400 ng·h/mL; half-life ([2]; iv dosing 2 mg/kg): 3.06 h; Vd ([2]; iv dosing 2 mg/kg): 0.55 L/kg
